ChEMBL document CHEMBL1177858, “Cytotoxicity and topo I targeting activity of substituted 10--nitrogenous heterocyclic aromatic group derivatives of SN-38” (Eur J Med Chem, 2010)

Legend:
[1] = biological target: T1, DNA topoisomerase 1 (Homo sapiens) (UniProt P11387); assay: Inhibition of topoisomerase 1-mediated supercoiled pBR322 relaxation assessed as change in band intensity by electrophoresis relative to camptothecin; also: test concentration or dose not given here
T1 sequence (whole entry): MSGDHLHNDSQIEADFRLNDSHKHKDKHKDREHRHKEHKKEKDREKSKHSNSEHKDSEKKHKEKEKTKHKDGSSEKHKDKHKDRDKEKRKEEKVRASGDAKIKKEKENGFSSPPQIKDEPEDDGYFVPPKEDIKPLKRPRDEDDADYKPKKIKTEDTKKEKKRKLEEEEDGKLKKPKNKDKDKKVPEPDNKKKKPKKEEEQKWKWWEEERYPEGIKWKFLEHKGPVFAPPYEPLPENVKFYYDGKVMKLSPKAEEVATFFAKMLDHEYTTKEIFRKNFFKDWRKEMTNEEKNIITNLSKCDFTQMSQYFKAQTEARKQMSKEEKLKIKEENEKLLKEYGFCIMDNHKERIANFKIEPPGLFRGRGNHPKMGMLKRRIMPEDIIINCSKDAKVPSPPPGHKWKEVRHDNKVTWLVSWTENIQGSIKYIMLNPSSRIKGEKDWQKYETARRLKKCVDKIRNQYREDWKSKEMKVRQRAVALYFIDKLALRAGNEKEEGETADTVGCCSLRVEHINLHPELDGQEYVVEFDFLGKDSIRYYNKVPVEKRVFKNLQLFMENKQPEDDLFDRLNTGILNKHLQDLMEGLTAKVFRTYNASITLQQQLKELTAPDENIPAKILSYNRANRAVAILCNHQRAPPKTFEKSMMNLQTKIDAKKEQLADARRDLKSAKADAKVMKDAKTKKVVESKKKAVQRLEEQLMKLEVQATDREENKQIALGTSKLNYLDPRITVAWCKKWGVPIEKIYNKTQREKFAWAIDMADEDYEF

[2] = test system: KB; assay: Cytotoxicity against human KB cells after 3 days by MTT assay; type: functional, cell-based
[3] = test system: MCF7; assay: Cytotoxicity against human MCF7 cells after 3 days by MTT assay; type: functional, cell-based
[4] = test system: HCT-8; assay: Cytotoxicity against human HCT8 cells after 3 days by MTT assay; type: functional, cell-based

| Structure (SMILES) | fold change (FC) [1] | IC50 [2] [nM/ml] | IC50 [3] [nM/ml] | IC50 [4] [nM/ml] |
| --- | --- | --- | --- | --- |
| CCc1c2c(nc3ccc(OCCC[n+]4ccccc4)cc13)-c1cc3c(c(=O)n1C2)COC(=O)[C@]3(O)CC.[Br-] | 0.96 | 0.02 | 0.14 | 0.04 |
| CC[C@@]1(O)C(=O)OCc2c1cc1n(c2=O)Cc2cc3cc(OCC[n+]4cccc(C(C)=O)c4)ccc3nc2-1.[Br-] | 1.04 | 6.28 | – | 5.88 |
| CCc1c2c(nc3ccc(OCCC[n+]4cccc(CO)c4)cc13)-c1cc3c(c(=O)n1C2)COC(=O)[C@]3(O)CC.[Br-] | 0.95 | 0.52 | 1.38 | 0.13 |
| CCc1c2c(nc3ccc(OCCC[n+]4cccc(C)c4)cc13)-c1cc3c(c(=O)n1C2)COC(=O)[C@]3(O)CC.[Br-] | 0.97 | < 0.01 | 0.11 | < 0.01 |
| CC[C@@]1(O)C(=O)OCc2c1cc1n(c2=O)Cc2cc3cc(OCCCn4cncn4)ccc3nc2-1 | 0.62 | – | 0.62 | 0.9 |
| CC[C@@]1(O)C(=O)OCc2c1cc1n(c2=O)Cc2cc3cc(OCC[n+]4ccccc4)ccc3nc2-1.[Br-] | 1.03 | 0.72 | – | 0.97 |
| CCc1c2c(nc3ccc(OCCCOc4cc(C(F)(F)F)ncn4)cc13)-c1cc3c(c(=O)n1C2)COC(=O)[C@]3(O)CC | 0.59 | 0.02 | 0.08 | 0.07 |
| CC[C@@]1(O)C(=O)OCc2c1cc1n(c2=O)Cc2cc3cc(OCCCOc4cc(C(F)(F)F)ncn4)ccc3nc2-1 | 0.67 | – | 0.18 | 0.18 |
| CC[C@@]1(O)C(=O)OCc2c1cc1n(c2=O)Cc2cc3cc(OCC[n+]4cccc(CO)c4)ccc3nc2-1.[Br-] | 0.7 | 6.57 | – | 7.49 |
| CCc1c2c(nc3ccc(OCC[n+]4cccc(C)c4)cc13)-c1cc3c(c(=O)n1C2)COC(=O)[C@]3(O)CC.[Br-] | 1.07 | 0.06 | 5.04 | 0.27 |
| CCc1c2c(nc3ccc(OCC[n+]4cccc(CO)c4)cc13)-c1cc3c(c(=O)n1C2)COC(=O)[C@]3(O)CC.[Br-] | 1.02 | 0.61 | 1.74 | 0.85 |
| CC[C@@]1(O)C(=O)OCc2c1cc1n(c2=O)Cc2cc3cc(OCCC[n+]4cccc(C)c4)ccc3nc2-1.[Br-] | 0.72 | < 0.01 | – | < 0.01 |
| CCc1c2c(nc3ccc(OCC[n+]4cccc(F)c4)cc13)-c1cc3c(c(=O)n1C2)COC(=O)[C@]3(O)CC.[Br-] | 1.07 | 0.19 | 0.25 | 0.1 |
| CC[C@@]1(O)C(=O)OCc2c1cc1n(c2=O)Cc2cc3cc(OCC[n+]4cccc(F)c4)ccc3nc2-1.[Br-] | 0.85 | 0.68 | – | 0.73 |
| CC[C@@]1(O)C(=O)OCc2c1cc1n(c2=O)Cc2cc3c(CN(C)C)c(O)ccc3nc2-1 [TOPOTECAN] | – | 0.07 | 0.15 | 0.07 |
| CCc1c2c(nc3ccc(OCC[n+]4ccccc4)cc13)-c1cc3c(c(=O)n1C2)COC(=O)[C@]3(O)CC.[Br-] | 1.12 | 0.08 | 1.56 | 0.52 |
| CCc1c2c(nc3ccc(OCCC[n+]4cccc(C(C)=O)c4)cc13)-c1cc3c(c(=O)n1C2)COC(=O)[C@]3(O)CC.[Br-] | 0.86 | 4.82 | 2.81 | 2.24 |
| CC[C@@]1(O)C(=O)OCc2c1cc1n(c2=O)Cc2cc3cc(OCCCn4cnc5cncnc54)ccc3nc2-1 | 0.61 | – | 2.09 | 1.81 |
| CC[C@@]1(O)C(=O)OCc2c1cc1n(c2=O)Cc2cc3cc(OCCC[n+]4ccccc4)ccc3nc2-1.[Br-] | 0.7 | 0.06 | – | 0.07 |
| CCc1c2c(nc3ccc(OCCC[n+]4cccc(F)c4)cc13)-c1cc3c(c(=O)n1C2)COC(=O)[C@]3(O)CC.[Br-] | 0.92 | 1.9 | 1.92 | 0.43 |
| CCc1c2c(nc3ccc(OCCCn4cncn4)cc13)-c1cc3c(c(=O)n1C2)COC(=O)[C@]3(O)CC | 0.64 | 0.04 | 0.08 | 0.04 |
| CC[C@@]1(O)C(=O)OCc2c1cc1n(c2=O)Cc2cc3cc(OCC[n+]4cccc(C)c4)ccc3nc2-1.[Br-] | 1.02 | 1.3 | – | 2.95 |
| CCc1c2c(nc3ccc(OCC[n+]4cccc(C(C)=O)c4)cc13)-c1cc3c(c(=O)n1C2)COC(=O)[C@]3(O)CC.[Br-] | 0.97 | 0.09 | 0.26 | 0.09 |
| CC[C@@]1(O)C(=O)OCc2c1cc1n(c2=O)Cc2cc3cc(OCCCn4ccnc4)ccc3nc2-1 | 0.7 | – | 0.38 | 0.98 |
| CCc1c2c(nc3ccc(OCCCn4ccnc4)cc13)-c1cc3c(c(=O)n1C2)COC(=O)[C@]3(O)CC | 1.01 | 0.32 | 0.16 | 0.06 |
| CCc1c2c(nc3ccc(OCCCn4cnc5cncnc54)cc13)-c1cc3c(c(=O)n1C2)COC(=O)[C@]3(O)CC | 0.72 | 0.13 | 1.23 | 0.88 |
| CC[C@@]1(O)C(=O)OCc2c1cc1n(c2=O)Cc2cc3ccccc3nc2-1 [CAMPTOTHECIN] | 1 | < 0.013 | 0.02 | < 0.013 |
